The record followed here is ChEMBL document CHEMBL1201862, “PubChem BioAssay data set” (2004).

A word on the AC50: it is the concentration giving half of the maximal activity seen.

Active and inactive are the calls of the source.

The target in the first test is T1, Zinc finger protein mex-5 (Caenorhabditis elegans, UniProt Q9XUB2).
T1 sequence (Q9XUB2 whole entry): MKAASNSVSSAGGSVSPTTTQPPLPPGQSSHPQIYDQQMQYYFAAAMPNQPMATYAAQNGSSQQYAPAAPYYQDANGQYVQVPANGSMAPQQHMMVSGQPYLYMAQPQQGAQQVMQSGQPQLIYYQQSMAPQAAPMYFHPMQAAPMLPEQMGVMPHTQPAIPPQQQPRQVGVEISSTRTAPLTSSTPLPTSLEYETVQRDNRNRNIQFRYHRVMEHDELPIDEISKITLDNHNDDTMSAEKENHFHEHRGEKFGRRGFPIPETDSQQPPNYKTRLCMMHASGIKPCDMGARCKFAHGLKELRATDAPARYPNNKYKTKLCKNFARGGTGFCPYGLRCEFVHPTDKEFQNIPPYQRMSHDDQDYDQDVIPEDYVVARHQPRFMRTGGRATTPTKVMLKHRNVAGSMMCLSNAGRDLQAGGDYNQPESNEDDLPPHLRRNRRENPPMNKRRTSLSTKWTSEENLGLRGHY
As to the kind of experiment: potency of MEX-5 RNA-binding blockers – biochemical, C. elegans, fluorescence polarization, dose response (AID 1960).
Details: not given
In the case of `CN1C(=O)C(=Cc2c[nH]c3ccccc23)C(=O)N(C)C1=O`, the EC50 is 151 µM (active).
Consider `Cc1cccn2c(=O)c3cc(C(=O)NC4CCCC4)c(=N)n(CCc4ccccc4)c3nc12`, for which the EC50 is recorded as > 300 µM (not active).

A further test concerns the target T2, Cytochrome P450 1A2 (Homo sapiens, UniProt P05177).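 Note: PubChem cytochrome P450 panel assay, CYP1A2 panel member.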
T2 sequence (P05177 whole entry): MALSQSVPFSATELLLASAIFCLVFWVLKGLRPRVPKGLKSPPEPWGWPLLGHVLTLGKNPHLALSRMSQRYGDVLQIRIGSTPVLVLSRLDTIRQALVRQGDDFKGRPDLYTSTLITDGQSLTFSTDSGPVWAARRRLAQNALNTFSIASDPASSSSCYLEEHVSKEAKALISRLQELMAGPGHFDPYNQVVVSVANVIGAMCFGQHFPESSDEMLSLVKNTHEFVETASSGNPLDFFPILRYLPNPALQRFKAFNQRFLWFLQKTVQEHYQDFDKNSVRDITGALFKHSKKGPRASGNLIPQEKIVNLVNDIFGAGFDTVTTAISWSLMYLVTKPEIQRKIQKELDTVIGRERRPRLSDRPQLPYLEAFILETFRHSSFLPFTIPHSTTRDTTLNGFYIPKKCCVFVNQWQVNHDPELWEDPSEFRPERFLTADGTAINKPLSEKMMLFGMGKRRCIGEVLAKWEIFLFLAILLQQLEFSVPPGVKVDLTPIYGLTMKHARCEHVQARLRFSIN
Assay: not given
Details: not given
As to `C[C@@H](C(=O)O)/C(=C/c1ccc2c(c1)OCO2)C(=O)O`, the AC50 is 0.316 µM (inconclusive).

The target in the next test is T3, Corticotropin-releasing factor receptor 2/Corticotropin-releasing factor-binding protein (Homo sapiens, UniProt P24387+Q13324).
T3 sequence (Q13324 whole entry): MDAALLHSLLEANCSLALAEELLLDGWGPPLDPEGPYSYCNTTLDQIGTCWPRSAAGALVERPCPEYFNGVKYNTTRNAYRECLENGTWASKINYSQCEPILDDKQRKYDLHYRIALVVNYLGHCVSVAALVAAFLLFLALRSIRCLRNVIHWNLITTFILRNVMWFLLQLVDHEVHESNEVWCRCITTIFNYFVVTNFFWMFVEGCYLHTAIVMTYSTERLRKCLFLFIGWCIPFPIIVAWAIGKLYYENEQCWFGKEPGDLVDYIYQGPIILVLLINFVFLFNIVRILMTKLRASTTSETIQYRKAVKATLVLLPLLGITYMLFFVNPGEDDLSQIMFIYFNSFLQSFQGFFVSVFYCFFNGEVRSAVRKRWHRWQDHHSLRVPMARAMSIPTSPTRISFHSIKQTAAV
T3 sequence (P24387 whole entry): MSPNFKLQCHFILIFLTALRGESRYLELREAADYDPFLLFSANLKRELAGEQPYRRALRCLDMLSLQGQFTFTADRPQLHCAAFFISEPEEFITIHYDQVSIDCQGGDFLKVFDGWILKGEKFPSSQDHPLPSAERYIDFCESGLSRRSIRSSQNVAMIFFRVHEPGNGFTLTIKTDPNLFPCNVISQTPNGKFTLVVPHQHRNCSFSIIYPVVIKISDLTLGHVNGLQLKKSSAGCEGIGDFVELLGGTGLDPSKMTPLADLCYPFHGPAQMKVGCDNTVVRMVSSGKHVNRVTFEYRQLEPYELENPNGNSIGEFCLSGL
As to the kind of experiment: activators of CRF receptor 2 with binding protein – uHTS hits, confirmation (AID 602473). Format: functional. The following applies: read-out: EC50_Mean.
Turning to `Cc1cccc(C)c1N1CCN(C(=O)c2ccc3c(c2)OCO3)CC1`, the EC50 was > 53 µM (inactive).
Same read-out and setting: next, `Cc1cc(C)c2c(CC(=O)Nc3nccs3)coc2c1`: > 53 µM (inactive); `COc1cc(C2C(C#N)=C(N)Oc3[nH]nc(-c4ccccn4)c32)cc(OC)c1OC` (stereo unspecified): > 53 µM (inactive); `S=C(Nc1ccc2c(c1)OCO2)Nc1ccccc1Cl`: > 53 µM (inactive).
Same read-out and setting: next, `Clc1ccc2nncn2n1`: > 53 µM (inactive).
Regarding `COC(=O)Cc1ccc(NC(=S)NCCC(C)C)cc1`, the EC50 is > 53 µM (inactive).
With `O=C(CCc1ccccc1)Nc1c(F)cccc1F`, the EC50 was > 53 µM (inactive).
As for `O=C(NCc1ccncc1)c1cc(F)c(F)cc1Cl`, the EC50 is > 53 µM (inactive).
On the same count and under the same terms, to `Cc1cc(/C=N/NC(=O)c2ccoc2C)cc(C)c1O` belongs > 53 µM (inactive).

The target in another test is Cytochrome P450 3A4 (Homo sapiens, UniProt P08684).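 Note: CYP3A4 tested as one member of a cytochrome P450 panel screen.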
Cytochrome P450 3A4, sequence (P08684 whole entry): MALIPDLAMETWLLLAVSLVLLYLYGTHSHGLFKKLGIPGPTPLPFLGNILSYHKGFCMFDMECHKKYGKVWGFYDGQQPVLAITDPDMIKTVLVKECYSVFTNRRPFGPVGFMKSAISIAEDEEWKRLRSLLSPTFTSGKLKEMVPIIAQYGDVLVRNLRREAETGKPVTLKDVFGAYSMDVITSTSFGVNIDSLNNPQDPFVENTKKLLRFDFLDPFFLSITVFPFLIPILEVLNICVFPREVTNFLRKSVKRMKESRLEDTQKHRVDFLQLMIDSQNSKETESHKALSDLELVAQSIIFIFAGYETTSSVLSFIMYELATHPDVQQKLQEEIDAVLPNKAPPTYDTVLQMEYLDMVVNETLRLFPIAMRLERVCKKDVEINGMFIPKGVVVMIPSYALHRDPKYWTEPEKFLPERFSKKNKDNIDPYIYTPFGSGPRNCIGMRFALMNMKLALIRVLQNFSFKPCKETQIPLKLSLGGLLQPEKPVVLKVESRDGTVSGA
Assay: not given
Details: not given
In the case of `C[C@@H](C(=O)O)/C(=C/c1ccc2c(c1)OCO2)C(=O)O`, the AC50 is 6.31 µM (inconclusive).

Test system in a further test: not listed separately
Put plainly: loss of viability in HepG2 cells – cell-based, CellTiter-Glo, cherry-picked, cytotoxicity control for Shn3 inhibitor project, dose response (AID 624134).
Details: not given
The test is classed as functional. On the technique in general: ATP-based viability assays read luminescence as a measure of living cells.
As for `COc1ccc(CNCCC(c2ccc(OC(C)C)cc2)c2ccccc2OC)cc1OC` (stereo unspecified), the AC50 is 19.1 µM (active).
Still for that read-out and setting: to `Cc1cc(NC(=O)CCN2CCN(C/C=C/c3ccccc3)CC2)ccc1Br` belongs > 70 µM (inactive); to `OC(c1cc(-c2cccc(Cl)c2)nc2ccccc12)C1CCCCN1` (stereo unspecified), 16 µM (active); to `COc1ccc(NC(=O)C2Cc3c(-c4cccc(C(C)=O)c4)ccnc3O2)cc1OC` (stereo unspecified), 7.75 µM (active).

The target of the next test is T4, RNA-binding protein pos-1 (Caenorhabditis elegans, UniProt G5EF15).
T4 sequence (G5EF15 whole entry): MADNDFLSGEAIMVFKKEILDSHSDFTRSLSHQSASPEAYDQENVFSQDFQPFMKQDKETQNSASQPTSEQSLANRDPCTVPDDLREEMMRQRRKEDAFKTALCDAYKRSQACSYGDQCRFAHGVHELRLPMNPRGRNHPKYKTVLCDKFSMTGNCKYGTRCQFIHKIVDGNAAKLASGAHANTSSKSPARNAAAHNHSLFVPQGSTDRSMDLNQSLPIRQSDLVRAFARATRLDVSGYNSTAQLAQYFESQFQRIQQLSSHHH
Put plainly: disruptors of C. elegans POS-1 RNA interaction – biochemical, fluorescence polarization, dose response (AID 1964).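 Note: purified POS-1 fused to maltose binding protein made in E. coli; potency of compounds blocking POS-1 binding to fluorescent RNA.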
Details: not given
For orientation: In fluorescence polarisation assays a small probe gives low polarisation when free and higher when bound to something large.
As for `CN1C(=O)C(=Cc2c[nH]c3ccccc23)C(=O)N(C)C1=O`, the EC50 is 52.9 µM (active).
Take `Cc1cccn2c(=O)c3cc(C(=O)NC4CCCC4)c(=N)n(CCc4ccccc4)c3nc12`: the EC50 is > 300 µM (not active).

Test system in another test: not listed separately
Put plainly: non-specific 3'UTR reporter inhibition in Clone20-Shn3RL – cell-based, Renilla luciferase, cherry-picked, counter-screen for Shn3 inhibitor project, dose response (AID 624133). The test is classed as functional.
Details: not given
In general terms: The purpose of a counterscreen is to sort out artefacts and off-target activity.
For the molecule `COc1ccc(CNCCC(c2ccc(OC(C)C)cc2)c2ccccc2OC)cc1OC` (stereo unspecified), the AC50 was 5.37 µM (active).
For the molecule `Cc1cc(NC(=O)CCN2CCN(C/C=C/c3ccccc3)CC2)ccc1Br`, the AC50 was 15 µM (active).
In the case of `OC(c1cc(-c2cccc(Cl)c2)nc2ccccc12)C1CCCCN1` (stereo unspecified), the AC50 is 15.4 µM (active).
Same read-out and setting: to `COc1ccc(NC(=O)C2Cc3c(-c4cccc(C(C)=O)c4)ccnc3O2)cc1OC` (stereo unspecified) belongs 4.68 µM (active).

Test system in a further test: not listed separately
As to the kind of experiment: reduction of Shn3 3'UTR-driven luciferase in osteoblasts – cell-based, Clone20 osteoblasts, firefly luciferase, cherry-picked, dose response (AID 624132).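 Note: firefly luciferase luminescence from reporter carrying the Shn3 3'UTR in osteoblasts.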
Details: not given
Format: functional.
For the molecule `COc1ccc(CNCCC(c2ccc(OC(C)C)cc2)c2ccccc2OC)cc1OC` (stereo unspecified), the AC50 is 4.35 µM (active).
Same read-out and setting: to `Cc1cc(NC(=O)CCN2CCN(C/C=C/c3ccccc3)CC2)ccc1Br` belongs 10.2 µM (active); to `OC(c1cc(-c2cccc(Cl)c2)nc2ccccc12)C1CCCCN1` (stereo unspecified), 10.8 µM (active).
Same read-out and setting: next, `COc1ccc(NC(=O)C2Cc3c(-c4cccc(C(C)=O)c4)ccnc3O2)cc1OC` (stereo unspecified): 0.799 µM (active).

The target in another test is T3, Corticotropin-releasing factor receptor 2/Corticotropin-releasing factor-binding protein. Put plainly: Dose Response confirmation of uHTS hits for small molecule antagonists of the CRF-binding protein and CRF-R2 receptor complex. Format: functional. The following applies: read-out: IC50_Mean.
Consider `Cc1cccc(C)c1N1CCN(C(=O)c2ccc3c(c2)OCO3)CC1`, for which the IC50 was > 47.1 µM (inactive).
Same read-out and setting: to `Cc1cc(C)c2c(CC(=O)Nc3nccs3)coc2c1` belongs > 47.1 µM (inactive); to `COc1cc(C2C(C#N)=C(N)Oc3[nH]nc(-c4ccccn4)c32)cc(OC)c1OC` (stereo unspecified), > 47.1 µM (inactive); to `S=C(Nc1ccc2c(c1)OCO2)Nc1ccccc1Cl`, > 47.1 µM (inactive).
Same read-out and setting: next, `Clc1ccc2nncn2n1`: > 47.1 µM (inactive); `COC(=O)Cc1ccc(NC(=S)NCCC(C)C)cc1`: > 47.1 µM (inactive).
Still for that read-out and setting: next, `O=C(CCc1ccccc1)Nc1c(F)cccc1F`: > 47.1 µM (inactive); `O=C(NCc1ccncc1)c1cc(F)c(F)cc1Cl`: > 47.1 µM (inactive); `Cc1cc(/C=N/NC(=O)c2ccoc2C)cc(C)c1O`: > 47.1 µM (inactive).
